In DBAASP:
≈ marks a conversion by molar mass, not a printed value.

Tests used:
Test in all cases: ≥ marks a high value that may be exact or a test limit, other limits are often not marked, values filed in µg/mL are converted to µM
[1] = system: Candida albicans NCYC 1467
[2] = system: Enterococcus faecalis NCTC 12697
[3] = system: Escherichia coli NCTC 10418
[4] = system: Klebsiella pneumoniae ATCC 43816
[5] = system: Pseudomonas aeruginosa ATCC 27853
[6] = system: Staphylococcus aureus NCTC 10788
[7] = system: Staphylococcus aureus NCTC 12493
Aureobasidium pullulans = system: Aureobasidium pullulans
[8] = system: Candida albicans ATCC 10231
[9] = system: Corynebacterium glutamicum ATCC 13032
[10] = system: Escherichia coli ATCC 25922
[11] = system: Staphylococcus aureus ATCC 9144
Escherichia coli K-12 = system: Escherichia coli K-12
[12] = system: Pseudomonas aeruginosa PA214
[13] = system: Pseudomonas aeruginosa PA287
[14] = system: Pseudomonas aeruginosa PAO1

SMILES: CC[C@H](C)[C@@H]1NC(=O)[C@H](C)NC(=O)[C@@H](NC(=O)[C@H](Cc2ccccc2)NC(=O)[C@@H](NC(=O)[C@H](CCCCN)NC(=O)[C@@H]2CCCN2C(=O)[C@H](CC(C)C)NC(=O)[C@H](Cc2ccccc2)NC(=O)[C@H](CCCCN)NC(=O)[C@H](C)NC(=O)[C@H](C)NC(=O)[C@H](CC(C)C)NC(=O)CNC(=O)[C@H](C)NC(=O)[C@@H](NC(=O)[C@H](CC(C)C)NC(=O)[C@@H]2CCCN2C(=O)[C@H](CC(C)C)NC(=O)[C@@H](N)Cc2ccccc2)[C@@H](C)CC)[C@@H](C)CC)CSSC[C@@H](C(=O)O)NC(=O)[C@H](CCCCN)NC(=O)[C@H](CCCCN)NC(=O)[C@H]([C@@H](C)O)NC1=O [FLPLIAGLAAKFLPKIFCAITKKC]
- MIC [1]: 4 µM (≈ 10.4 µg/mL)
- MIC [2]: 8 µM (≈ 20.8 µg/mL)
- MIC [3]: 8 µM (≈ 20.8 µg/mL)
- MIC [4]: 16 µM (≈ 41.7 µg/mL)
- MIC [5]: 32 µM (≈ 83.4 µg/mL)
- MIC [6]: 4 µM (≈ 10.4 µg/mL)
- MIC [7]: 16 µM (≈ 41.7 µg/mL)

SMILES: CC(C)C[C@H](NC(=O)[C@H](CCC(N)=O)NC(=O)[C@H](CCC(N)=O)NC(=O)[C@H](C)NC(=O)CNC(=O)[C@H](C)NC(=O)[C@H](CCCCN)NC(=O)CNC(=O)[C@@H](NC(=O)[C@H](CCC(N)=O)NC(=O)[C@H](CCCCN)NC(=O)[C@H](CCCCN)NC(=O)[C@H](CC(C)C)NC(=O)[C@H](Cc1ccc(O)cc1)NC(=O)[C@H](CCCCN)NC(=O)[C@H](C)NC(=O)CNC(=O)[C@H](C)NC(=O)[C@H](CCCCN)NC(=O)[C@H](Cc1ccccc1)NC(=O)[C@H](CC(C)C)NC(=O)[C@H](CO)NC(=O)[C@H](CO)NC(=O)[C@H](Cc1ccccc1)NC(=O)CN)C(C)C)C(N)=O [GFSSLFKAGAKYLKKQVGKAGAQQL]
- MIC [1]: ≥ 64 µM
- MIC [2]: 16 µM (≈ 42 µg/mL)
- MIC [3]: 8 µM (≈ 21 µg/mL)
- MIC [4]: ≥ 128 µM
- MIC [5]: 16 µM (≈ 42 µg/mL)
- MIC [6]: 16 µM (≈ 42 µg/mL)
- MIC [7]: ≥ 64 µM

SMILES: CC(C)[C@H](NC(=O)[C@H](CCCCN)NC(=O)[C@H](C)NC(=O)[C@@H](NC(=O)[C@@H](NC(=O)[C@H](CCCN=C(N)N)NC(=O)[C@H](C)NC(=O)[C@H](Cc1c[nH]c2ccccc12)NC(=O)[C@H](Cc1c[nH]c2ccccc12)NC(=O)CN)[C@@H](C)O)C(C)C)C(=O)N[C@@H](CCCN=C(N)N)C(=O)N[C@@H](CCCCN)C(N)=O [GWWARTVAKVRK]
- MIC (Aureobasidium pullulans): ≥ 50 µM
- MIC [8]: 25 µM (≈ 36.4 µg/mL)
- MIC [9]: 1.6 µM (≈ 2.33 µg/mL)
- MIC [10]: 6.3 µM (≈ 9.18 µg/mL)
- MIC [5]: 12.5 µM (≈ 18.2 µg/mL)
- MIC [11]: ≥ 50 µM

SMILES: C[C@H](NC(=O)[C@H](C)NC(=O)[C@H](Cc1ccccc1)NC(=O)[C@H](C)NC(=O)[C@H](C)NC(=O)[C@H](Cc1c[nH]c2ccccc12)NC(=O)[C@H](C)NC(=O)[C@H](CCCCN)NC(=O)[C@H](C)NC(=O)[C@H](Cc1ccccc1)NC(=O)[C@H](C)NC(=O)[C@H](C)NC(=O)[C@H](CCCCN)NC(=O)[C@H](CCCCN)NC(=O)[C@H](CCCCN)NC(=O)[C@H](CCCCN)NC(=O)[C@@H](N)CCCCN)C(N)=O [KKKKKAAFAKAWAAFAA]
- MIC (Escherichia coli K-12): 6.3 µM (≈ 11.6 µg/mL)
- MIC [12]: 25 µM (≈ 45.9 µg/mL)
- MIC [13]: ≥ 50 µM
- MIC [14]: 25 µM (≈ 45.9 µg/mL)
